Test results published in ChEMBL document CHEMBL1140598, “A review of anti-infective and anti-inflammatory chalcones” (Eur J Med Chem, 2007).

Test system: Mycobacterium tuberculosis variant bovis
Experiment: Antibacterial activity against Mycobacterium bovis
Assay type: functional

## C=CC(C)(C)c1cc(/C=C/C(=O)c2ccc(O)cc2)c(OC)cc1O [LICOAGROCHACONE A]
  MIC: ≤ 20 µg/mL
